Literature values in patent publication US9744299B2, “Data processing device for an anesthesia device” (Dräger Medical GmbH, priority 2012, dated 2017).
Where two headings read alike, the source gives them in different places.

Tests used:
patients [1] = details: effect-site concentration, 50% of patients tolerate "Shake and Shout"
patients [2] = details: steepness of the rise of the response surface; property of the drug

For FCOC(C(F)(F)F)C(F)(F)F [sevoflurane], the C50hyp (patients [1]; C50Vol) is listed as 1.47 vol. %.
For CC(C)c1cccc(C(C)C)c1O [Propofol, propofol], the “h (Steepness)” value (patients [2]) is listed as 3.46 and the C50hyp (patients [1]; C50Prop) is listed as 2.99 µg/mL.
